Data reported in patent US20220168427A1 (Ranok Therapeutics (Hangzhou) Co. Ltd., priority 2019, published 2022).

Legend:
HSP90α = HSP90α (Homo sapiens, UniProt P07900); assay: HSP90α Binding Fluorescent Polarization (FP) Assay; conditions: competition with FITC-geldanamycin; read-out: HSP90 Binding Potency
Summary of the method: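 Duplicate wells held BSA buffer, FITC-geldanamycin tracer, compound (3-fold dilution plate spanning 40 μM–2.0 nM) and recombinant protein diluted to 28 μg/ml before addition. Polarization read at 30, 60 and 120 min, 25 °C. Background-corrected mP values gave IC50 through a four-parameter inhibitor-response fit.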

BRD4 (BD1+BD2) = target: T1, BRD4 (BD1+BD2) (Homo sapiens, UniProt O60885); conditions: read-out: BRD4 Binding Potency
T1 construct: 1.8 μg/ml recombinant BRD4 (BD1+BD2 domains) protein

MV4-11 cells = assay: MV4-11 Cell Cytotoxicity Assay; format: cell-based, human; conditions: human, MV4-11 cells, CCK-8
Description: % Inhibition=100−(D−B)/(S−B)*100%.
S: The absorbance of the maximum (cells with DMSO)
B: The absorbance of the minimum (medium with DMSO)

Compound | IC50 (HSP90α) | IC50 (BRD4 (BD1+BD2)) | IC50 at 72 h (MV4-11 cells)
Cc1sc2c(c1C)C(c1ccc(Cl)cc1)=N[C@@H](CC(=O)NCC1CCN(C(=O)C3CCN(Cc4ccc(-n5c(O)nnc5-c5cc(C(C)C)c(O)cc5O)cc4)CC3)CC1)c1nnc(C)n1-2 [Compound 53, (S)-2-(4-(4-chlorophenyl)-2,3,9-trimethyl-6H-thieno[3,2-f][1,2,4]triazolo[4,3-a][1,4]diazepin-6-yl)-N-((1-(1-(4-(3-(2,4-dihydroxy-5-isopropylphenyl)-5-hydroxy-4H-1,2,4-triazol-4-yl)benzyl)piperidine-4-carbonyl)piperidin-4-yl)methyl)acetamide, trifluoroacetic acid] | 100 to 1000 nM | 100 to 1000 nM | < 100 nM
Cc1sc2c(c1C)C(c1ccc(Cl)cc1)=N[C@@H](CC(=O)NCC(=O)NCCOc1ccc(-n3c(O)nnc3-c3cc(C(C)C)c(O)cc3O)cc1)c1nnc(C)n1-2 [Compound 54, (S)-2-(4-(4-chlorophenyl)-2,3,9-trimethyl-6H-thieno[3,2-f][1,2,4]triazolo[4,3-a][1,4]diazepin-6-yl)-N-(2-((2-(4-(3-(2,4-dihydroxy-5-isopropylphenyl)-5-hydroxy-4H-1,2,4-triazol-4-yl)phenoxy)ethyl)amino)-2-oxoethyl)acetamide] | < 100 nM | 100 to 1000 nM | 100 to 1000 nM
Cc1sc2c(c1C)C(c1ccc(Cl)cc1)=N[C@@H](CC(=O)NCC(=O)NCCOCCOc1ccc(-n3c(O)nnc3-c3cc(C(C)C)c(O)cc3O)cc1)c1nnc(C)n1-2 [Compound 55, (S)-2-(4-(4-chlorophenyl)-2,3,9-trimethyl-6H-thieno[3,2-f][1,2,4]triazolo[4,3-a][1,4]diazepin-6-yl)-N-(2-((2-(2-(4-(3-(2,4-dihydroxy-5-isopropylphenyl)-5-hydroxy-4H-1,2,4-triazol-4-yl)phenoxy)ethoxy)ethyl)amino)-2-oxoethyl)acetamide] | 100 to 1000 nM | 100 to 1000 nM | 100 to 1000 nM
CCc1cc(-c2nnc(O)n2-c2ccc(CNC(=O)C[C@@H]3N=C(c4ccc(Cl)cc4)c4c(sc(C)c4C)-n4c(C)nnc43)cc2)c(O)cc1O [Compound 56, 2-((6S)-4-(4-chlorophenyl)-2,3,9-trimethyl-6H-thieno[3,2-f][1,2,4]triazolo[4,3-a][1,4]diazepin-6-yl)-N-(4-(3-(5-ethyl-2,4-dihydroxyphenyl)-5-hydroxy-4H-1,2,4-triazol-4-yl)benzyl)acetamide] | 100 to 1000 nM | 100 to 1000 nM | 100 to 1000 nM
Cc1sc2c(c1C)C(c1ccc(Cl)cc1)=N[C@@H](CC(=O)NCC(=O)NCc1ccc(-n3c(O)nnc3-c3cc(C(C)C)c(O)cc3O)cc1)c1nnc(C)n1-2 [Compound 57, 2-((6S)-4-(4-chlorophenyl)-2,3,9-trimethyl-6H-thieno[3,2-f][1,2,4]triazolo[4,3-a][1,4]diazepin-6-yl)-N-(2-((4-(3-(2,4-dihydroxy-5-isopropylphenyl)-5-hydroxy-4H-1,2,4-triazol-4-yl)benzyl)amino)-2-oxoethyl)acetamide] | 100 to 1000 nM | 100 to 1000 nM | 100 to 1000 nM
Cc1sc2c(c1C)C(c1ccc(Cl)cc1)=N[C@@H](CC(=O)NCC1CN(C(=O)C3CCN(Cc4ccc(-n5c(O)nnc5-c5cc(C(C)C)c(O)cc5O)cc4)CC3)C1)c1nnc(C)n1-2 [Compound 59, 2-((6S)-4-(4-chlorophenyl)-2,3,9-trimethyl-6H-thieno[3,2-f][1,2,4]triazolo[4,3-a][1,4]diazepin-6-yl)-N-((1-(1-(4-(3-(2,4-dihydroxy-5-isopropylphenyl)-5-hydroxy-4H-1,2,4-triazol-4-yl)benzyl)piperidine-4-carbonyl)azetidin-3-yl)methyl)acetamide, trifluoroacetic acid] | 100 to 1000 nM | 100 to 1000 nM | < 100 nM
Cc1sc2c(c1C)C(c1ccc(Cl)cc1)=N[C@@H](CC(=O)NCC(=O)NCC1CN(C(=O)C3CCN(Cc4ccc(-n5c(O)nnc5-c5cc(C(C)C)c(O)cc5O)cc4)CC3)C1)c1nnc(C)n1-2 [Compound 60, 2-((6S)-4-(4-chlorophenyl)-2,3,9-trimethyl-6H-thieno[3,2-f][1,2,4]triazolo[4,3-a][1,4]diazepin-6-yl)-N-(2-(((1-(1-(4-(3-(2,4-dihydroxy-5-isopropylphenyl)-5-hydroxy-4H-1,2,4-triazol-4-yl)benzyl)piperidine-4-carbonyl)azetidin-3-yl)methyl)amino)-2-oxoethyl)acetamide, trifluoroacetic acid] | 100 to 1000 nM | 100 to 1000 nM | < 100 nM
Cc1sc2c(c1C)C(c1ccc(Cl)cc1)=N[C@@H](CCNCCOc1ccc(-n3c(O)nnc3-c3cc(C(C)C)c(O)cc3O)cc1)c1nnc(C)n1-2 [Compound 62, (S)-4-(4-(4-(2-((2-(4-(4-chlorophenyl)-2,3,9-trimethyl-6H-thieno[3,2-f][1,2,4]triazolo[4,3-a][1,4]diazepin-6-yl)ethyl)amino)ethoxy)phenyl)-5-hydroxy-4H-1,2,4-triazol-3-yl)-6-isopropylbenzene-1,3-diol, trifluoroacetic acid] | 100 to 1000 nM | > 1000 nM | 100 to 1000 nM
Cc1sc2c(c1C)C(c1ccc(Cl)cc1)=N[C@@H](CCNCCOCCOc1ccc(-n3c(O)nnc3-c3cc(C(C)C)c(O)cc3O)cc1)c1nnc(C)n1-2 [Compound 63, (S)-4-(4-(4-(2-(2-((2-(4-(4-chlorophenyl)-2,3,9-trimethyl-6H-thieno[3,2-f][1,2,4]triazolo[4,3-a][1,4]diazepin-6-yl)ethyl)amino)ethoxy)ethoxy)phenyl)-5-hydroxy-4H-1,2,4-triazol-3-yl)-6-isopropylbenzene-1,3-diol, trifluoroacetic acid] | 100 to 1000 nM | 100 to 1000 nM | 100 to 1000 nM
Cc1sc2c(c1C)C(c1ccc(Cl)cc1)=N[C@@H](CCNCC1CCN(C(=O)C3CCN(Cc4ccc(-n5c(O)nnc5-c5cc(C(C)C)c(O)cc5O)cc4)CC3)CC1)c1nnc(C)n1-2 [Compound 64, (4-(((2-((6S)-4-(4-chlorophenyl)-2,3,9-trimethyl-6H-thieno[3,2-f][1,2,4]triazolo[4,3-a][1,4]diazepin-6-yl)ethyl)amino)methyl)piperidin-1-yl)(1-(4-(3-(2,4-dihydroxy-5-isopropylphenyl)-5-hydroxy-4H-1,2,4-triazol-4-yl)benzyl)piperidin-4-yl)methanone, trifluoroacetic acid] | 100 to 1000 nM | 100 to 1000 nM | 100 to 1000 nM
Cc1sc2c(c1C)C(c1ccc(Cl)cc1)=N[C@@H](CCN(C)CCOc1ccc(-n3c(O)nnc3-c3cc(C(C)C)c(O)cc3O)cc1)c1nnc(C)n1-2 [Compound 65, (S)-4-(4-(4-(2-((2-(4-(4-chlorophenyl)-2,3,9-trimethyl-6H-thieno[3,2-f][1,2,4]triazolo[4,3-a][1,4]diazepin-6-yl)ethyl)(methyl)amino)ethoxy)phenyl)-5-hydroxy-4H-1,2,4-triazol-3-yl)-6-isopropylbenzene-1,3-diol] | 100 to 1000 nM | > 1000 nM | 100 to 1000 nM
Cc1sc2c(c1C)C(c1ccc(Cl)cc1)=N[C@@H](CCNCC1CCN(C(=O)C3CCN(Cc4ccc(-n5c(O)nnc5-c5cc(C(C)C)c(O)cc5O)cc4)CC3)C1)c1nnc(C)n1-2 (stereo partly drawn) [Compound 66, (3-(((2-((6S)-4-(4-chlorophenyl)-2,3,9-trimethyl-6H-thieno[3,2-f][1,2,4]triazolo[4,3-a][1,4]diazepin-6-yl)ethyl)amino)methyl)pyrrolidin-1-yl)(1-(4-(3-(2,4-dihydroxy-5-isopropylphenyl)-5-hydroxy-4H-1,2,4-triazol-4-yl)benzyl)piperidin-4-yl)methanone, trifluoroacetic acid] | 100 to 1000 nM | > 1000 nM | 100 to 1000 nM
CCc1cc(-c2nnc(O)n2-c2ccc(CN3CCC(C(=O)N4CCC(CNCC[C@@H]5N=C(c6ccc(Cl)cc6)c6c(sc(C)c6C)-n6c(C)nnc65)C4)CC3)cc2)c(O)cc1O (stereo partly drawn) [Compound 67, (3-(((2-((6S)-4-(4-chlorophenyl)-2,3,9-trimethyl-6H-thieno[3,2-f][1,2,4]triazolo[4,3-a][1,4]diazepin-6-yl)ethyl)amino)methyl)pyrrolidin-1-yl)(1-(4-(3-(5-ethyl-2,4-dihydroxyphenyl)-5-hydroxy-4H-1,2,4-triazol-4-yl)benzyl)piperidin-4-yl)methanone, trifluoroacetic acid] | 100 to 1000 nM | 100 to 1000 nM | 100 to 1000 nM
CCc1cc(-c2nnc(O)n2-c2ccc(CN3CCC(C(=O)N4CCC(CNCC[C@@H]5N=C(c6ccc(Cl)cc6)c6c(sc(C)c6C)-n6c(C)nnc65)CC4)CC3)cc2)c(O)cc1O [Compound 68, (4-(((2-((6S)-4-(4-chlorophenyl)-2,3,9-trimethyl-6H-thieno[3,2-f][1,2,4]triazolo[4,3-a][1,4]diazepin-6-yl)ethyl)amino)methyl)piperidin-1-yl)(1-(4-(3-(5-ethyl-2,4-dihydroxyphenyl)-5-hydroxy-4H-1,2,4-triazol-4-yl)benzyl)piperidin-4-yl)methanone, trifluoroacetic acid] | 100 to 1000 nM | 100 to 1000 nM | 100 to 1000 nM
Cc1sc2c(c1C)C(c1ccc(Cl)cc1)=N[C@@H](CCN(C)CCOCCOc1ccc(-n3c(O)nnc3-c3cc(C(C)C)c(O)cc3O)cc1)c1nnc(C)n1-2 [Compound 71, (S)-4-(4-(4-(2-(2-((2-(4-(4-chlorophenyl)-2,3,9-trimethyl-6H-thieno[3,2-f][1,2,4]triazolo[4,3-a][1,4]diazepin-6-yl)ethyl)(methyl)amino)ethoxy)ethoxy)phenyl)-5-hydroxy-4H-1,2,4-triazol-3-yl)-6-isopropylbenzene-1,3-diol, trifluoroacetic acid] | 100 to 1000 nM | > 1000 nM | 100 to 1000 nM
